Laboratory results reported in PubChem BioAssay AID330 (DTP/NCI, 2004).
“And” between values parts separate entries of the source, which are not always exact repeats. Identical values can stand only once. Inconclusive results and toxic doses are left out. Square brackets hold non-standard residues; d marks the D form. Peptide text beside a SMILES is read from it. * marks the point of attachment. Cbz = O=C(OCc1ccccc1)*; Nva = CCC[CH](N)C(=O)O

Test system: P388 leukemia ip, CD2F1 mice, survival T/C
Assay: NCI In Vivo Anticancer Drug Screen. Data for tumor model P388 Leukemia (intraperitoneal) in CD2F1 (CDF1) mice
Conditions: endpoint: median survival time, higher = longer survival
Summary of the method: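 Mice carrying the transplanted tumor received test compound or vehicle. Survival was recorded in each group, and the value is the treated-group measurement divided by that of the vehicle-treated control group.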

[1] = dose: 50.0 mg/kg/injection, schedule: Q01DX005 (ip), vehicle: Klucel (hydroxypropylcellulose) (HPC)
[2] = dose: 100.0 mg/kg/injection, schedule: Q01DX005 (ip), vehicle: Klucel (hydroxypropylcellulose) (HPC)
[3] = dose: 200.0 mg/kg/injection, schedule: Q01DX005 (ip), vehicle: Klucel (hydroxypropylcellulose) (HPC)
[4] = dose: 25.0 mg/kg/injection, schedule: Q01DX009 (ip), vehicle: saline
[5] = dose: 50.0 mg/kg/injection, schedule: Q01DX009 (ip), vehicle: saline
[6] = dose: 100.0 mg/kg/injection, schedule: Q01DX009 (ip), vehicle: saline
[7] = dose: 200.0 mg/kg/injection, schedule: Q01DX009 (ip), vehicle: saline
[8] = dose: 50.0 mg/kg/injection, schedule: Q01DX005 (ip), vehicle: saline with Tween-80
[9] = dose: 100.0 mg/kg/injection, schedule: Q01DX005 (ip), vehicle: saline with Tween-80
[10] = dose: 200.0 mg/kg/injection, schedule: Q01DX005 (ip), vehicle: saline with Tween-80
[11] = dose: 50.0 mg/kg/injection, schedule: Q01DX009 (ip), vehicle: saline with Tween-80
[12] = dose: 100.0 mg/kg/injection, schedule: Q01DX009 (ip), vehicle: saline with Tween-80
[13] = dose: 200.0 mg/kg/injection, schedule: Q01DX009 (ip), vehicle: saline with Tween-80
[14] = dose: 400.0 mg/kg/injection, schedule: Q01DX009 (ip), vehicle: saline with Tween-80
[15] = dose: 50.0 mg/kg/injection, schedule: Q01DX009 (ip), vehicle: Klucel (hydroxypropylcellulose) (HPC)

COc1cccc2c1C(=O)c1c(O)c3c(c(O)c1C2=O)CC(O)(C(=O)COc1ccccc1)CC3OC1CC(NC(=O)C(F)(F)F)C(O)C(C)O1 (stereo unspecified)
T/C (dose: 1.56 mg/kg/injection, schedule: Q01DX009 (ip), vehicle: other): 98 % of control and 102 % of control
T/C (dose: 3.13 mg/kg/injection, schedule: Q01DX009 (ip), vehicle: other): 102 % of control and 110 % of control
T/C (dose: 12.5 mg/kg/injection, schedule: Q01DX009 (ip), vehicle: other): 105 % of control
T/C (dose: 25.0 mg/kg/injection, schedule: Q01DX009 (ip), vehicle: other): 114 % of control

CCNC(=O)OCC1=C(COC(=O)NCC)C2OC1C(C(=O)OC)=C2C(=O)OC
T/C (dose: 3.13 mg/kg/injection, schedule: Q01DX009 (ip), vehicle: distilled water + Tween-80): 100 % of control
T/C (dose: 6.25 mg/kg/injection, schedule: Q01DX009 (ip), vehicle: distilled water + Tween-80): 98 % of control
T/C (dose: 12.5 mg/kg/injection, schedule: Q01DX009 (ip), vehicle: distilled water + Tween-80): 100 % of control and 87 % of control
T/C (dose: 25.0 mg/kg/injection, schedule: Q01DX009 (ip), vehicle: distilled water + Tween-80): 109 % of control

O=C1CN2Cc3c(sc4c3CCCC4)N=C2N1
T/C [1]: 106 % of control
T/C [2]: 102 % of control
T/C [3]: 99 % of control

Cc1cc(OC(=O)Nc2ccc(C(C)C)cc2)c(C)cc1Br
T/C (dose: 6.25 mg/kg/injection, schedule: Q01DX009 (ip), vehicle: saline): 89 % of control
T/C (dose: 12.5 mg/kg/injection, schedule: Q01DX009 (ip), vehicle: saline): 92 % of control
T/C [4]: 98 % of control
T/C (dose: 100.0 mg/kg/injection, schedule: Q01DX009 (ip), vehicle: saline + alcohol): 98 % of control
T/C (dose: 200.0 mg/kg/injection, schedule: Q01DX009 (ip), vehicle: saline + alcohol): 110 % of control

O=[N+]([O-])c1cc(NC(=S)SC2CCCCC2)ccc1Cl
T/C [4]: 107 % of control and 108 % of control
T/C [5]: 100 % of control and 104 % of control and 93 % of control
T/C [6]: 102 % of control and 110 % of control and 90 % of control
T/C [7]: 100 % of control and 104 % of control and 122 % of control

CNc1ccccc1C(=O)NNC(=O)Nc1ccccc1C(F)(F)F
T/C [8]: 98 % of control
T/C [9]: 100 % of control
T/C [10]: 111 % of control

CN(C)c1ccc(-c2nc(-c3ccccc3)c(-c3ccccc3)[nH]2)cc1
T/C [11]: 104 % of control
T/C [12]: 100 % of control
T/C [13]: 104 % of control
T/C [14]: 106 % of control

N=C(Oc1ccccc1[N+](=O)[O-])c1ccccc1
T/C [11]: 90 % of control and 94 % of control
T/C [12]: 100 % of control and 95 % of control
T/C [13]: 102 % of control and 93 % of control
T/C [14]: 88 % of control

CN(C)c1ccc(Nc2c3ccccc3nc3ccccc23)cc1
T/C (dose: 12.5 mg/kg/injection, schedule: Q04DX002 (ip), vehicle: distilled water + Tween-80): 113 % of control
T/C (dose: 13.0 mg/kg/injection, schedule: Q04DX003 (ip), vehicle: saline with Tween-80): 100 % of control and 103 % of control
T/C (dose: 21.6 mg/kg/injection, schedule: Q04DX003 (ip), vehicle: saline with Tween-80): 107 % of control and 111 % of control
T/C (dose: 25.0 mg/kg/injection, schedule: Q04DX002 (ip), vehicle: distilled water + Tween-80): 150 % of control and 156 % of control
T/C (dose: 25.9 mg/kg/injection, schedule: Q04DX003 (ip), vehicle: saline): 109 % of control
T/C (dose: 36.0 mg/kg/injection, schedule: Q04DX003 (ip), vehicle: saline with Tween-80): 110 % of control and 111 % of control
T/C (dose: 50.0 mg/kg/injection, schedule: Q04DX002 (ip), vehicle: distilled water + Tween-80): 185 % of control and 196 % of control
T/C (dose: 100.0 mg/kg/injection, schedule: Q04DX003 (ip), vehicle: saline with Tween-80): 157 % of control
T/C (dose: 120.0 mg/kg/injection, schedule: Q04DX003 (ip), vehicle: saline): 179 % of control

NC/C(=N\Nc1ccc([N+](=O)[O-])cc1[N+](=O)[O-])c1ccccc1
T/C (dose: 100.0 mg/kg/injection, schedule: Q04DX003 (ip), vehicle: saline): 100 % of control
T/C (dose: 200.0 mg/kg/injection, schedule: Q04DX003 (ip), vehicle: saline): 113 % of control
T/C (dose: 400.0 mg/kg/injection, schedule: Q04DX003 (ip), vehicle: saline): 95 % of control

CCOC(=O)c1cn[nH]c1N
T/C (dose: 25.0 mg/kg/injection, schedule: Q01DX009 (ip), vehicle: Klucel (hydroxypropylcellulose) (HPC)): 108 % of control
T/C [15]: 93 % of control

CCOC(=O)c1oc2ccccc2c1CN(CCO)CCO
T/C [8]: 98 % of control
T/C [9]: 100 % of control
T/C [10]: 105 % of control

C=C1CC2(CC3C(CC2C)C3(C)C)OC1=O (stereo unspecified)
T/C (dose: 100.0 mg/kg/injection, schedule: Q01DX001 (ip), vehicle: saline): 101 % of control
T/C (dose: 200.0 mg/kg/injection, schedule: Q01DX001 (ip), vehicle: saline): 101 % of control
T/C (dose: 400.0 mg/kg/injection, schedule: Q01DX001 (ip), vehicle: saline): 104 % of control

O=C1[N-]C(=S)c2cccn21.O=C1[N-]C(=S)c2cccn21.[Pt+2]
T/C (dose: 6.25 mg/kg/injection, schedule: Q01DX005 (ip), vehicle: saline with Tween-80): 104 % of control
T/C (dose: 12.5 mg/kg/injection, schedule: Q01DX005 (ip), vehicle: saline with Tween-80): 107 % of control
T/C (dose: 25.0 mg/kg/injection, schedule: Q01DX005 (ip), vehicle: saline with Tween-80): 105 % of control
T/C [8]: 105 % of control

N=c1sccn1CC(O)c1ccccc1 (stereo unspecified)
T/C (dose: 100.0 mg/kg/injection, schedule: Q01DX001 (ip), vehicle: Klucel (hydroxypropylcellulose) (HPC)): 100 % of control
T/C (dose: 200.0 mg/kg/injection, schedule: Q01DX001 (ip), vehicle: Klucel (hydroxypropylcellulose) (HPC)): 100 % of control

O=C1C(c2ccccc2)=C(c2ccccc2)C2(c3ccccc3)C=NNC12c1ccccc1 (stereo unspecified)
T/C (dose: 6.25 mg/kg/injection, schedule: Q01DX005 (ip), vehicle: Klucel (hydroxypropylcellulose) (HPC)): 95 % of control
T/C (dose: 12.5 mg/kg/injection, schedule: Q01DX005 (ip), vehicle: Klucel (hydroxypropylcellulose) (HPC)): 92 % of control

CC1=CN2CCC(=O)N=C2C=C1
T/C [5]: 93 % of control
T/C [6]: 90 % of control
T/C [7]: 94 % of control

[O-][n+]1c2ccccc2[n+]([O-])c2c3ccccc3[nH]c21
T/C [8]: 95 % of control
T/C [9]: 95 % of control
T/C [10]: 88 % of control

CC1COS(=O)(=O)CS(=O)(=O)O1 (stereo unspecified)
T/C (dose: 60.0 mg/kg/injection, schedule: Q01DX005 (ip), vehicle: saline with Tween-80): 100 % of control

C/C1=C\CCC(C)C2CCC(C)(O2)C(O)C(O)c2c(C)coc2C1 (stereo unspecified)
T/C (dose: 4.0 mg/kg/injection, schedule: Q01DX009 (ip), vehicle: Klucel (hydroxypropylcellulose) (HPC)): 100 % of control
T/C (dose: 8.0 mg/kg/injection, schedule: Q01DX009 (ip), vehicle: Klucel (hydroxypropylcellulose) (HPC)): 105 % of control
T/C (dose: 16.0 mg/kg/injection, schedule: Q01DX009 (ip), vehicle: Klucel (hydroxypropylcellulose) (HPC)): 100 % of control
T/C (dose: 32.0 mg/kg/injection, schedule: Q01DX009 (ip), vehicle: Klucel (hydroxypropylcellulose) (HPC)): 94 % of control

C=CC1(C)CCC2C(=CCC3C(C)(COC4OC(CO)C(O)C(O)C4O)C(O)CCC23C)C1 (stereo unspecified)
T/C (dose: 3.0 mg/kg/injection, schedule: Q01DX009 (ip), vehicle: Klucel (hydroxypropylcellulose) (HPC)): 100 % of control
T/C (dose: 6.0 mg/kg/injection, schedule: Q01DX009 (ip), vehicle: Klucel (hydroxypropylcellulose) (HPC)): 94 % of control
T/C (dose: 12.0 mg/kg/injection, schedule: Q01DX009 (ip), vehicle: Klucel (hydroxypropylcellulose) (HPC)): 103 % of control
T/C (dose: 24.0 mg/kg/injection, schedule: Q01DX009 (ip), vehicle: Klucel (hydroxypropylcellulose) (HPC)): 103 % of control
T/C (dose: 48.0 mg/kg/injection, schedule: Q01DX009 (ip), vehicle: Klucel (hydroxypropylcellulose) (HPC)): 106 % of control

CCCCNC(=O)C(c1ccccc1)c1ccccc1
T/C [15]: 99 % of control
T/C (dose: 100.0 mg/kg/injection, schedule: Q01DX009 (ip), vehicle: Klucel (hydroxypropylcellulose) (HPC)): 106 % of control
T/C (dose: 200.0 mg/kg/injection, schedule: Q01DX009 (ip), vehicle: Klucel (hydroxypropylcellulose) (HPC)): 100 % of control

CCCC(NC(=O)OCc1ccccc1)C(=O)NC(C(=O)O)C(C)C (stereo unspecified) (Cbz-[Nva]-Val-OH; configuration not given here)
T/C [1]: 94 % of control
T/C [2]: 92 % of control
T/C [3]: 96 % of control
